Measurements as given in patent US10463712B2, “Human catestatin induces gut microbiota dysbiosis” (University of Manitoba, priority 2015, dated 2019).
Where no end group is shown, it is not given here.

Tests used:
[1] = system: fecal microbiota; test: Fecal microbiota composition by Illumina 16S rRNA sequencing after intrarectal CTS; type: in vivo, C57BL/6 mice; conditions: for Mean percentage of sequence in total bacterial population: CTS 1.5 mg/kg/day i.r. 6 days
Method: (§1) Male C57BL/6 mice (7-9 weeks old) were purchased from Charles River (Canada) and maintained in the animal care facility at the University of Manitoba. The experimental protocol was approved by the University of Manitoba Animal Ethics Committee (10-073) and the research was conducted according to the Canadian Guidelines for Animal Research. Two groups of 4 and 6 mice were studied, one receiving the vehicle solution and one receiving intra-rectal Infusion of CTS for 6 days.
(§2) Saline (0.9%) was injected in the control group. Mice were anaesthetized using Isoflurane (Abbott, Toronto, Canada).
(§3) Samples were collected 6 days post-treatment induction, after euthanasia under isoflurane (Abbot) anaesthesia. The macroscopic score was determined on the sacrifice day based on stool consistency, rectal prolapse and rectal and colonic bleeding. On the day of sacrifice, a 250 mg fecal sample and a portion of the colon were collected in individual collector tubes from each animal. All samples were preserved at −80° C. before use.
(§4) Colons were opened and 50 mg of scrapings were taken from the inside. Samples were homogenized at room temperature, and genomic DNA was extracted from 250 mg fecal mass using a ZR fecal DNA Kit (Zymo Research Corp., Orange, Calif.). DNA extraction was performed using a Qiagen DNeasy blood & tissue kit (Qiagen corp, Valencia, USA). Both DNA extraction kits have a bead-beating step to lyse microbial cells. To match the concentration requirement for pyrosequencing, DNA quantity was determined using a Beckman DU/800 spectrophotometer (Beckman Coulter, Inc., Fullerton, Calif.). Genomic DNA was normalized to achieve a concentration of 20 ng/μL, and quality-checked by 16S rRNA gene using PCR amplification of 27F (5′-[…]-3′, SEQ ID NO:2) and 342R (5′-[…]-3′, SEQ ID NO:3)^58, 59. Amplicons were verified by agarose gel electrophoresis.
(§5) Library construction and Illumina sequencing were performed as described by Derakhshani et al.^60. Briefly, the […] region of the 16S rRNA gene was targeted for PCR amplification using modified F515/R806 primers^61. A reverse PCR primer was Indexed with 12-base Golay barcodes to allow for sample multiplexing. The PCR reaction for each sample was performed in duplicate and contained 1.0 μl of pre-normalized DNA, 1.0 μl each of forward and reverse primers (10 μM), 12 μl HPLC grade water (Fisher Scientific, ON, Canada) and 10 μl 5 Prime Hot MasterMix® (5 Prime, Inc., Gaithersburg, USA). Reactions consisted of an initial denaturing step at 94° C. for 3 min followed by 35 amplification cycles at 94° C. for 45 sec, 50° C. for 60 sec and 72° C. for 90 sec; this was followed by an extension step at 72° C. for 10 min in an Eppendorf Mastercycler® (Eppendorf, Hamburg, Germany). PCR products were then purified using a ZR-96 DNA Clean-up Kit™ (ZYMO Research, CA, USA) to remove primers, dNTPs and reaction components. The V4 library was then generated by pooling 200 ng of each sample, and quantified using Picogreen dsDNA (Invitrogen, NY, USA). This was followed by multiple dilution steps using pre-chilled hybridization buffer (HT1) (Illumina, CA, USA) to bring the pooled ampilcons to a final concentration of […], and the concentration was measured through optical density using a Qubit® 2.0 Fluorometer (Life technologies, ON, Canada). […] The 150 paired-end sequencing reaction was performed on a MISeq platform (Illumina, CA, USA) at the Gut Microbiome and Large Animal Biosecurity Laboratories, Department of Animal Science, University of Manitoba, Canada.
(§6) Bioinformatics analyses were performed as described by Derakhshani et al.^60. Briefly, the PANDAseq assembler^62 was used to merge overlapping paired-end Illumina fastq files. All the sequences with mismatches or ambiguous calls in the overlapping region were discarded. The output fastq file was then analyzed using downstream computational pipelines in the open source software package QIIME^63.

[2] = system: colonic mucosa associated microbiota; test: Colonic mucosa associated microbiota composition by Illumina 16S rRNA sequencing after intrarectal CTS; type: in vivo, C57BL/6 mice; conditions: for Mean percentage of sequence in total bacterial population: CTS 1.5 mg/kg/day i.r. 6 days
Method: as §1, §2, §3, §4, §5, §6

[3] = system: Staphylococcus aureus, group A Streptococcus, Escherichia coli, Pseudomonas aeruginosa, Candida albicans, Aspergillus niger, A. fumigates, Trichophyton rubrum; conditions: gram-positive and gram-negative bacteria, yeasts, filamentous fungi; cited from earlier work
[4] = system: induced colitis; conditions: Rabbi et al. 2014; cited from earlier work
[5] = fecal samples, R^2=0.94, Q^2=0.57
[6] = colonic mucosa associated samples
[7] = colonic mucosa associated samples, R^2=0.32, Q^2=0.242

## SSMKLSFRARAYGFRGPGPQL [CTS]
[1]; CTS administration in vivo
  E. coli levels in the gut: not affected
  S. aureus levels in the gut: not affected
[1]; fecal bacterial community, vs control
  Impact on Chao1, ACE, Shanon and Simpson indices of α-diversity: no significant impact
[1]; fecal samples
  Effect on Verrucomicrobia: lowered
[1]; fecal samples, P<0.05
  β-diversity (unweighted UniFrac, PERMANOVA): bacterial community vs controls: clustered separately
[1]; [5]
  PLS-DA association with CTS treatment: Adlercreutzia, Allobaculum, Bacteroidaceae (Family), Clostridia (Class), Ruminococcaceae (Family): negative association
  PLS-DA association with CTS treatment: Alpharoteobacteria (Class), Bacteroidales (Order), RF32 (Order), mitochondria (Family), YS2 (Order): positive association
  PLS-DA association with CTS treatment: genera Prevotella, Bacteroides Ovatus, Bacteroides, Parabacteroides distarosis, Parabacteroides and Dorea: positively associated
[1]; feces, P<0.001
  Change of Firmicutes population vs control: significantly decreased
[1]; feces, P<0.05
  Change of relative abundance of Bacteroidetes vs control: significantly increased
[1]; feces, lower taxonomical level
  Prevotella, Bacteroides, and Parabacteroides populations: significant increase
[1]; phylum Actinobacteria, fecal samples
  Mean percentage of sequence in total bacterial population: 0.1877%
[1]; phylum Bacteroidetes, fecal samples
  Mean percentage of sequence in total bacterial population: 74%
[1]; phylum Cyanobacteria, fecal samples
  Mean percentage of sequence in total bacterial population: 0.152%
[1]; phylum Deferribacteres, fecal samples
  Mean percentage of sequence in total bacterial population: 1.144%
[1]; phylum Fibrobacteres, fecal samples
  Mean percentage of sequence in total bacterial population: 0.000541%
[1]; phylum Firmicutes, fecal samples
  Mean percentage of sequence in total bacterial population: 20.56%
[1]; phylum Proteobacteria, fecal samples
  Mean percentage of sequence in total bacterial population: 2.873%
[1]; phylum TM7, fecal samples
  Mean percentage of sequence in total bacterial population: 0.003098%
[1]; phylum Tenericutes, fecal samples
  Mean percentage of sequence in total bacterial population: 0.4046%
[1]; phylum Unclassified, fecal samples
  Mean percentage of sequence in total bacterial population: 0.4142%
[1]; phylum Verrucomicrobia, fecal samples
  Mean percentage of sequence in total bacterial population: 0.266%
[2]; colonic mucosa associated bacterial community, vs control
  Impact on Chao1, ACE, Shanon and Simpson indices of α-diversity: no significant impact
[2]; [6]
  Effect on Verrucomicrobia: lowered
  Impact on relative abundance of bacterial phyla: no significant impact
  β-diversity (PERMANOVA): bacterial community vs controls: no significant change
[2]; [7]
  PLS-DA association with CTS treatment: Bacteroidales, Chitinophagaceae, Clostridlaceae, Clostridiales, Coriobacteriaceae, Pseudomonadaceae, Rikenellaceae, Ruminococcaceae, YS2: positive association
  PLS-DA association with CTS treatment: genera Bifidobacterium and Stenotrophomonas: positive association
[2]; phylum Acidobacteria, colonic mucosa associated samples
  Mean percentage of sequence in total bacterial population: 0.03339%
[2]; phylum Actinobacteria, colonic mucosa associated samples
  Mean percentage of sequence in total bacterial population: 0.0724%
[2]; phylum Armatimonadetes, colonic mucosa associated samples
  Mean percentage of sequence in total bacterial population: 0.000879%
[2]; phylum Bacteroidetes, colonic mucosa associated samples
  Mean percentage of sequence in total bacterial population: 21.0435%
[2]; phylum Chlamydiae, colonic mucosa associated samples
  Mean percentage of sequence in total bacterial population: 0.00306%
[2]; phylum Chlorobi, colonic mucosa associated samples
  Mean percentage of sequence in total bacterial population: 0.002098%
[2]; phylum Cyanobacteria, colonic mucosa associated samples
  Mean percentage of sequence in total bacterial population: 0.1752%
[2]; phylum Deferribacteres, colonic mucosa associated samples
  Mean percentage of sequence in total bacterial population: 5.95%
[2]; phylum Fibrobacteres, colonic mucosa associated samples
  Mean percentage of sequence in total bacterial population: 0.01378%
[2]; phylum Firmicutes, colonic mucosa associated samples
  Mean percentage of sequence in total bacterial population: 12.52%
[2]; phylum Lentisphaerae, colonic mucosa associated samples
  Mean percentage of sequence in total bacterial population: 0.00457%
[2]; phylum OD1, colonic mucosa associated samples
  Mean percentage of sequence in total bacterial population: 0.004988%
[2]; phylum OP3, colonic mucosa associated samples
  Mean percentage of sequence in total bacterial population: 0.001604%
[2]; phylum Planctomycetes, colonic mucosa associated samples
  Mean percentage of sequence in total bacterial population: 0.004664%
[2]; phylum Proteobacteria, colonic mucosa associated samples
  Mean percentage of sequence in total bacterial population: 59.17%
[2]; phylum Spirochaetes, colonic mucosa associated samples
  Mean percentage of sequence in total bacterial population: 0.08226%
[2]; phylum TM7, colonic mucosa associated samples
  Mean percentage of sequence in total bacterial population: 0.007409%
[2]; phylum Tenericutes, colonic mucosa associated samples
  Mean percentage of sequence in total bacterial population: 0.3714%
[2]; phylum Unclassified, colonic mucosa associated samples
  Mean percentage of sequence in total bacterial population: 0.2915%
[2]; phylum Verrucomicrobia, colonic mucosa associated samples
  Mean percentage of sequence in total bacterial population: 0.1428%
[3]
  Antimicrobial activity in vitro: effective
[4]
  Severity of induced colitis: less severe induced colitis
